Our source for the T/C values is PubChem BioAssay AID296 (DTP/NCI, 2004).

Several values for one entry are separate records, joined by “and”; a condition that tells them apart may be missing. Identical values can stand only once. Inconclusive results are not listed.

The test system of the experiment is MX-1 breast xenograft, nude mice, tumor weight T/C. Put plainly: NCI In Vivo Anticancer Drug Screen. Data for tumor model Human Mammary Carcinoma MX-1 Xenograft (intrarenal inoculation) in NU/NU Swiss (nude) mice. To be noted: endpoint: mean tumor weight change, higher = larger tumour. Put shortly:
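Tumor-bearing mice were treated with test compound alongside a vehicle-treated control group. Survival or tumor size was measured, and activity is expressed as the treated-group value divided by the control-group value.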

[1] abbreviates: dose: 300.0 mg/kg/injection, schedule: Q04DX003 (sc), vehicle: suspension in saline.
Setting [2] is: dose: 600.0 mg/kg/injection, schedule: Q04DX003 (sc), vehicle: suspension in saline.
[3] abbreviates: dose: 1200.0 mg/kg/injection, schedule: Q04DX003 (sc), vehicle: suspension in saline.
Where [4] appears, read: dose: 300.0 mg/kg/injection, schedule: Q04DX003 (sc), vehicle: saline with Tween-80.
Where [5] appears, read: dose: 600.0 mg/kg/injection, schedule: Q04DX003 (sc), vehicle: saline with Tween-80.
Setting [6] is: dose: 1200.0 mg/kg/injection, schedule: Q04DX003 (sc), vehicle: saline with Tween-80.
Where [7] appears, read: dose: 2400.0 mg/kg/injection, schedule: Q04DX003 (sc), vehicle: saline with Tween-80.
Setting [8] is: dose: 200.0 mg/kg/injection, schedule: Q04DX003 (sc), vehicle: saline with Tween-80.
Setting [9] is: dose: 400.0 mg/kg/injection, schedule: Q04DX003 (sc), vehicle: saline with Tween-80.
[10] abbreviates: dose: 100.0 mg/kg/injection, schedule: Q01DX010 (sc), vehicle: saline with Tween-80.
[11] abbreviates: dose: 400.0 mg/kg/injection, schedule: Q01DX010 (sc), vehicle: saline with Tween-80.
[12] abbreviates: dose: 50.0 mg/kg/injection, schedule: Q01DX010 (sc), vehicle: saline with Tween-80.

In the case of `N#C[Se-].c1ccc([Te+](c2ccccc2)c2ccccc2)cc1`, the T/C is 101 % of control (dose: 3.75 mg/kg/injection, schedule: Q04DX003 (sc), vehicle: Klucel (hydroxypropylcellulose) (HPC)); 118 % of control (dose: 7.5 mg/kg/injection, schedule: Q04DX003 (sc), vehicle: Klucel (hydroxypropylcellulose) (HPC)); 75 % of control (dose: 30.0 mg/kg/injection, schedule: Q04DX003 (sc), vehicle: Klucel (hydroxypropylcellulose) (HPC)).
As for `CNC(=O)OCc1c(COC(=O)NC)c(-c2ccccc2)n(C)c1-c1ccccc1`, the T/C runs as follows: (dose: 100.0 mg/kg/injection, schedule: Q04DX003 (sc), vehicle: distilled water + Tween-80) 121 % of control; (dose: 200.0 mg/kg/injection, schedule: Q04DX003 (sc), vehicle: distilled water + Tween-80) 51 % of control; (dose: 400.0 mg/kg/injection, schedule: Q04DX003 (sc), vehicle: distilled water + Tween-80) 78 % of control; (dose: 800.0 mg/kg/injection, schedule: Q04DX003 (sc), vehicle: distilled water + Tween-80) 74 % of control.
Turning to `C[n+]1c(-c2cccc3ccccc23)c2cc(N)ccc2c2ccccc21`, the T/C runs as follows: (dose: 12.0 mg/kg/injection, schedule: Q04DX003 (sc), vehicle: saline) 103 % of control; (dose: 48.0 mg/kg/injection, schedule: Q04DX003 (sc), vehicle: saline) 92 % of control.
Regarding `N=C(N)SCc1c2ccccc2c(CSC(=N)N)c2ccccc12`, the T/C under setting [1] is 93 % of control; the T/C under setting [2] was 152 % of control; the T/C under setting [3] was 112 % of control; the T/C (dose: 2400.0 mg/kg/injection, schedule: Q04DX003 (sc), vehicle: suspension in saline) was 89 % of control.
Consider `O=C1NC2(CCCCC2)C(=O)N1CCN(CCCl)CCCl`, for which the T/C (dose: 3.0 mg/kg/injection, schedule: Q01DX010 (sc), vehicle: saline) is 48 % of control.
Regarding `CCCCn1cnc2c(=S)nc[nH]c21`, the T/C is 119 % of control under setting [1]; 81 % of control under setting [2]; 67 % of control (dose: 1024.0 mg/kg/injection, schedule: Q04DX003 (sc), vehicle: suspension in saline); 16 % of control under setting [3]; 49 % of control (dose: 1600.0 mg/kg/injection, schedule: Q04DX003 (sc), vehicle: suspension in saline); 4 % of control (dose: 2000.0 mg/kg/injection, schedule: Q04DX003 (sc), vehicle: suspension in saline).
With `O=[N+]([O-])c1ccc([I+]c2ccccc2)cc1`, the T/C (dose: 75.0 mg/kg/injection, schedule: Q04DX003 (ip), vehicle: Klucel (hydroxypropylcellulose) (HPC)) is 92 % of control.
As to `CCCCCCCCSC1=C(Cl)C(=O)C(OC)=C(OC)C1=O`, the T/C by setting is: (dose: 36.0 mg/kg/injection, schedule: Q04DX003 (sc), vehicle: saline with Tween-80) 113 % of control; (dose: 72.0 mg/kg/injection, schedule: Q04DX003 (sc), vehicle: saline with Tween-80) 109 % of control; (dose: 144.0 mg/kg/injection, schedule: Q04DX003 (sc), vehicle: saline with Tween-80) 90 % of control.
For `CCCCCCC(=O)CC(SCC)c1ccccc1Cl` (stereo not given), the T/C is 75 % of control under setting [4], 88 % of control under setting [5], 72 % of control under setting [6] and 96 % of control under setting [7].
On to `CCC1=C2C(=O)c3ccccc3C2=C(C)S(=O)(=O)O1`, for which the T/C was 122 % of control under setting [4], 104 % of control under setting [5] and 106 % of control under setting [6].
As to `CCCCCCCCCCCCCCCC(=O)Nc1ccn(C2OC(CO)C(O)C2O)c(=O)n1` (stereo not given), the T/C (dose: 1200.0 mg/kg/injection, schedule: Q04DX003 (sc), vehicle: water) is -65 % of control and -50 % of control.
For `Oc1cc2ccccc2c(-c2c(O)c(O)cc3ccccc23)c1O`, the T/C is 162 % of control (dose: 150.0 mg/kg/injection, schedule: Q04DX003 (sc), vehicle: saline with Tween-80); 151 % of control under setting [4]; 96 % of control under setting [6].
Regarding `O=c1[nH]c(=O)n([C@H]2CCCO2)cc1F`, the T/C by setting is: (dose: 100.0 mg/kg/injection, schedule: Q01DX010 (sc), vehicle: Klucel (hydroxypropylcellulose) (HPC)) 112 % of control; (dose: 200.0 mg/kg/injection, schedule: Q01DX010 (sc), vehicle: Klucel (hydroxypropylcellulose) (HPC)) 97 % of control; (dose: 800.0 mg/kg/injection, schedule: Q01DX010 (sc), vehicle: Klucel (hydroxypropylcellulose) (HPC)) 123 % of control.
In the case of `COC1=C(OC)C(=O)C(Sc2ccc3ccccc3c2)=CC1=O`, the T/C is 97 % of control (dose: 100.0 mg/kg/injection, schedule: Q04DX003 (sc), vehicle: saline with Tween-80); 68 % of control under setting [8]; 88 % of control under setting [9]; 61 % of control (dose: 800.0 mg/kg/injection, schedule: Q04DX003 (sc), vehicle: saline with Tween-80).
Turning to `CC(=O)Nc1ccc(O)c(O)c1`, the T/C runs as follows: under setting [4], 75 % of control; under setting [5], 52 % of control; under setting [6], 47 % of control.
Consider `O=NN(CCCl)C(=O)Oc1ccc(OC(=O)N(CCCl)N=O)cc1`, for which the T/C reads like this: (dose: 150.0 mg/kg/injection, schedule: Q04DX003 (sc), vehicle: Klucel (hydroxypropylcellulose) (HPC)) 107 % of control; (dose: 300.0 mg/kg/injection, schedule: Q04DX003 (sc), vehicle: Klucel (hydroxypropylcellulose) (HPC)) 95 % of control; (dose: 600.0 mg/kg/injection, schedule: Q04DX003 (sc), vehicle: Klucel (hydroxypropylcellulose) (HPC)) 91 % of control; (dose: 1200.0 mg/kg/injection, schedule: Q04DX003 (sc), vehicle: Klucel (hydroxypropylcellulose) (HPC)) 117 % of control.
Take `CC1C=NNC1=O` (stereo not given): the T/C under setting [10] is 123 % of control; the T/C under setting [11] was 62 % of control; the T/C (dose: 800.0 mg/kg/injection, schedule: Q01DX010 (sc), vehicle: saline with Tween-80) is 60 % of control.
For the compound `C/C=C(\C)C(=O)OC1C(C)=C2C(C1OC(=O)CCCCC)C(C)(OC(C)=O)CC(OC(=O)CCC)C1(O)C2OC(=O)C1(C)O` (stereo not given), for the setting “dose: 2.0 mg/kg/injection, schedule: Q04DX003 (ip), vehicle: Klucel (hydroxypropylcellulose) (HPC)”, the T/C is 52 % of control.
As to `O=C1N(Cl)C(=O)C(c2ccc(Cl)cc2)(c2ccc(Cl)cc2)N1Cl`, the T/C under setting [12] is 68 % of control; the T/C under setting [10] was 111 % of control; the T/C (dose: 200.0 mg/kg/injection, schedule: Q01DX010 (sc), vehicle: saline with Tween-80) is 65 % of control; the T/C under setting [11] was 87 % of control.
Take `COC1N(C2CC(O)C(CO)O2)C(=O)NC(=O)C1(F)Br` (stereo not given): where the note is “dose: 12.5 mg/kg/injection, schedule: Q01DX010 (sc), vehicle: saline”, the T/C is 117 % of control.
As to `F[B-](F)(F)F`, the T/C is 106 % of control (dose: 300.0 mg/kg/injection, schedule: Q04DX003 (sc), vehicle: gum acacia); 104 % of control (dose: 600.0 mg/kg/injection, schedule: Q04DX003 (sc), vehicle: gum acacia); 70 % of control (dose: 1200.0 mg/kg/injection, schedule: Q04DX003 (sc), vehicle: gum acacia).
As to `CCN(CC)CCCC(C)Nc1c2ccc(Cl)cc2nc2ccc(OC)cc12` (stereo not given), the T/C by setting is: under setting [12], 158 % of control; under setting [10], 110 % of control.
`O=C1[C@H]2CCC[C@H]2[C@H]2CCC[C@@H]12`: the T/C runs as follows: under setting [4], 112 % of control; under setting [5], 123 % of control; under setting [6], 95 % of control; under setting [7], 92 % of control.
Take `COC(=O)[C@@]12OC[C@]34[C@H]([C@@H](O)[C@@H]1O)[C@@]1(C)CC(=O)C(O)=C(C)[C@@H]1C[C@H]3OC(=O)[C@H](OC(=O)/C=C(\C)C(C)C)[C@@H]24`: the T/C was 52 % of control (dose: 0.25 mg/kg/injection, schedule: Q04DX003 (sc), vehicle: saline + alcohol); 158 % of control (dose: 0.5 mg/kg/injection, schedule: Q04DX003 (sc), vehicle: saline + alcohol); 100 % of control (dose: 1.0 mg/kg/injection, schedule: Q04DX003 (sc), vehicle: saline + alcohol); 90 % of control (dose: 2.0 mg/kg/injection, schedule: Q04DX003 (sc), vehicle: saline + alcohol).
`O=c1cc(CCl)[nH]nc1CCl`: the T/C runs as follows: under setting [12], 77 % of control; under setting [10], 42 % of control.
For the compound `C/C=C/C=C1/OC(C)=C(C(C)=O)C1=O`, the T/C by setting is: under setting [8], 104 % of control; under setting [9], 85 % of control.
